From patent publication US11401271B2, “Fused heterocyclic compound, pyrazole-ring-containing fused heterocyclic compound, agricultural composition containing thereof, and method of using the composition” (SOUTH CHINA AGRICULTURAL UNIVERSITY, priority 2017, dated 2022)
Like-named read-outs stand apart in the source and are kept apart here.

Experiments:
Assay type in all cases: in vivo
Spodoptera exigua = assay: whole plant or invertebrate; details: for mortality at 500 ppm: Spodoptera exigua, 24 h, read-out: Spodoptera exigua Mortality (%) 500 ppm
Summary of the method: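 Cabbage leaf discs dipped 5 s in 500 ppm compound (0.05% Tween-80 aqueous), air-dried, fed to about 35 2nd-instar larvae at 28° C, three replicates. Deaths counted at 24 h; mortality corrected against Tween-80 control.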

Solenopsis invicta = assay: whole plant or invertebrate; details: water test tube poison-feeding; for mortality at 100 ppm: Solenopsis invicta
Summary of the method: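 Fire ants fed compound by water test-tube poison-feeding at 100 ppm in aqueous 0.05% Tween-80/5% honey (from 10 g/L DMSO stock), kept at 25 °C. Live and dead ants counted at 24 and 72 h; mortality (%) calculated relative to live ants in the untreated control.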

Apis cernan = assay: Toxicity test on adult worker bees of Apis cernan, small beaker method; details: 500 ppm, 48 hours
Protocol: (2) Toxicity Test on Adult Worker Bees of Apis cernan.
Adult worker bees of Apis cernan having the same size were selected for test. The worker bees were collected from beekeeping boxes in the daystart of the test day and tested by using a small beaker method.
Operation process: A small amount of absorbent cotton was put into a 5 mL small beaker, 5 mL of a test liquid medicine (a concentration of 500 ppm) was dropped into the absorbent cotton, and stirred gently to make the absorbent cotton completely wet but not leached obviously, then the small beaker was put into a 500 mL large beaker, then 15 worker bees were put into the large beaker, and finally the large beaker was sealed with gauze. After treatment, the large beaker was placed in a dark room of an artificial climate box. After taking the medicine for 48 hours, a number of live and dead worker bees were investigated.

Plutella xylostella = assay: whole plant or invertebrate; details: for mortality at 500 ppm: Plutella xylostella, read-out: Plutella xylostella Mortality (%) 500 ppm
Summary of the method: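 Cabbage leaf discs dipped 5 s in compound at 500 ppm (0.05% Tween-80 aqueous), air-dried, fed to about 35 2nd-instar larvae at 28° C., triplicate. Dead larvae counted after 24 h; mortality (%) corrected against Tween-80 control.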

Bombyx mori L. = assay: Toxicity test on 2nd-instar larvae of Bombyx mori L., leaf immersion feeding method; details: 1000 ppm, 24 hours
Protocol: (1) Toxicity Test on 2nd-Instar Larvae of Bombyx mori L.
Bombyx mori L. is an important economic insect sensitive to pesticides in an agricultural ecosystem, and is also one of the non-target organisms of environmental ecology listed in pesticide registration of China. The 2nd-instar larvae of Bombyx mori L. were used as test objects and tested by using a leaf immersion feeding method.
Operation process: Samples were weighed accurately, and respectively added with 200 μL of dimethyl sulfoxide to prepare 10 g/L mother liquor which was diluted into a concentration of 1000 ppm with an aqueous solution containing 0.05% of Tween-80 during the test. Young cotyledons of mulberries were collected, washed and air-dried, immersed in a liquid medicine, taken out after 5 seconds, naturally air-dryed, and then transferred into a clean vessel. About 35 2nd -instar larvae of Bombyx mori L. were put into the vessel and fed at a constant temperature of 25° C. Each concentration was repeated 3 times, and an aqueous solution containing 0.05% of Tween-80 was used as a control group. After being treated for 24 hours, a number of dead Bombyx mori L. was counted, and a mortality (%) was calculated according to a formula that mortality (%)=(number of live larvae in the control group −number of treated live larvae)/number of live larvae in the control group * 100%.

Aphis craccivora = assay: whole plant or invertebrate; details: for mortality at 500 ppm: Aphis craccivora, 24 h, read-out: Aphis craccivora Mortality (%) 500 ppm
Summary of the method: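 Wingless adults feeding on bean sprouts were dipped with the sprouts for 5 s in 500 ppm compound in aqueous 0.05% Tween-80, air-dried, then held at 23° C. Dead aphids counted after 24 h, triplicate, with 0.05% Tween-80 as control. Mortality (%) = (control live − treated live)/control live × 100.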

[1] = 24 h, read-out: Solenopsis invicta Mortality (%) 100 ppm 24 h, 100 ppm, 24 h
[2] = 72 h, read-out: Solenopsis invicta Mortality (%) 100 ppm 72 h, 100 ppm, 72 h

Row | Structure (SMILES) | mortality at 500 ppm (Spodoptera exigua) [%] | mortality at 100 ppm (Solenopsis invicta; [1]) [%] | mortality at 100 ppm (Solenopsis invicta; [2]) [%] | Toxicity determination Apis cernan Mortality (%) (Apis cernan) | mortality at 500 ppm (Plutella xylostella) [%] | Toxicity determination Bombyx mori L. Mortality (%) (Bombyx mori L.) | mortality at 500 ppm (Aphis craccivora) [%] | Spodoptera exigua Mortality (%) 500 ppm (Spodoptera exigua; 500 ppm, 2nd-instar larvae, leaf immersion feeding, 24 hours) [%] | Solenopsis invicta Mortality (%) 100 ppm 24 h (Solenopsis invicta; 100 ppm, 24 h) [%] | Solenopsis invicta Mortality (%) 100 ppm 72 h (Solenopsis invicta; 100 ppm, 72 h) [%] | Plutella xylostella Mortality (%) 500 ppm (Plutella xylostella; 500 ppm, 2nd-instar larvae, leaf immersion feeding) [%] | Aphis craccivora Mortality (%) 500 ppm (Aphis craccivora; 500 ppm, wingless adults, impregnation method, 24 hours) [%]
1 | CC1(C)Nc2c(Br)c(C(=O)N3CCCCC3)nn2-c2ccccc21 [Compound A7] | 100 | 20 | 100 | 6 | 100 | 6 | 100 |  |  |  |  | 
2 | CNC(=O)Nc1ccc2c(c1)-n1cc(C#N)c(C#N)c1NC2(C#N)C#N [Compound B12] | 100 | 40 | 100 | 6 | 100 | 5 | 100 |  |  |  |  | 
3 | C=CC1(CC(F)(F)F)Nc2cc(C#N)nn2-c2c(Cl)cc(C(F)(F)F)cc21 (centres unmarked) [Compound C2] | 90 | 26 | 93 | 10 | 100 | 5 | 100 |  |  |  |  | 
4 | N#CCC1(C(N)=O)Nc2c([S+]([O-])C(F)(F)F)c(C#N)nn2-c2c(Cl)cc(C(F)(F)F)cc21 (centres unmarked) [Compound C32] | 90 | 25 | 100 | 9 | 100 | 6 | 95 |  |  |  |  | 
5 | CNC(=O)N1c2c(C#N)c(SC)nn2-c2ccccc2C1(F)C(F)(F)F (centres unmarked) [Compound A32] | 90 | 26 | 93 | 4 | 100 | 10 | 100 |  |  |  |  | 
6 | C=CC1(CCl)Nc2c([S+]([O-])C(F)(F)F)c(C#N)nn2-c2c(Cl)cc(C(F)(F)F)cc21 (centres unmarked) [Compound C13] | 100 | 32 | 100 | 10 | 100 | 12 | 100 |  |  |  |  | 
7 | C=CC1(C=C)Nc2c(Br)c(CC)nn2-c2c(Cl)cc(C(F)(F)F)cc21 [Compound C61] | 100 | 28 | 100 | 10 | 88 | 9 | 90 |  |  |  |  | 
8 | COC(=O)CC1(C(=O)OC)c2cc(C(F)(F)F)cc(Cl)c2-n2nc(C#N)c([S+]([O-])C(F)(F)F)c2N1C(C)=O (centres unmarked) [Compound C40] | 95 | 28 | 90 | 4 | 100 | 4 | 100 |  |  |  |  | 
9 | CN(C)CC1(CC#N)Nc2c([S+]([O-])C(F)(F)F)c(C#N)nn2-c2c(Cl)cc(C(F)(F)F)cc21 (centres unmarked) [Compound C29] | 93 | 30 | 100 | 4 | 100 | 0 | 100 |  |  |  |  | 
10 | C[S+]([O-])c1nn2c(c1C#N)NC(F)(C(F)(F)F)c1ccccc1-2 (centres unmarked) [Compound A26] |  |  |  | 10 |  | 7 |  | 100 | 45 | 100 | 100 | 100
11 | CNC(=O)Nc1c(C#N)nn2c1NC(C)(C)c1ccccc1-2 [Compound A19] | 100 | 20 | 100 | 5 | 100 | 7 | 100 |  |  |  |  | 
12 | COc1ccc(-c2cn3c(c2C#N)N(C)C(C#N)(C#N)c2ccc([N+](=O)[O-])cc2-3)cc1 [Compound B2] | 90 | 26 | 93 | 4 | 100 | 3 | 93 |  |  |  |  | 
13 | CCOC(=O)c1c(SC)nn2c1NC(C)(C)c1nc(F)ncc1-2 [Compound A44] | 90 | 26 | 93 | 8 | 100 | 8 | 100 |  |  |  |  | 
14 | N#CCC1(C(=O)O)Nc2c([S+]([O-])C(F)(F)F)c(C#N)nn2-c2c(Cl)cc(C(F)(F)F)cc21 (centres unmarked) [Compound C30] | 90 | 24 | 100 | 0 | 100 | 0 | 92 |  |  |  |  | 
15 | N#Cc1nn2c(c1[S+]([O-])C(F)(F)F)NC(CC(N)=O)(C(N)=O)c1cc(C(F)(F)F)cc(Cl)c1-2 (centres unmarked) [Compound C38] | 90 | 25 | 90 | 0 | 100 | 4 | 100 |  |  |  |  | 
16 | C=CC1(C(F)(F)F)Nc2cc(C#N)nn2-c2c(Cl)cc(C(F)(F)F)cc21 (centres unmarked) [Compound C3] | 100 | 24 | 100 | 10 | 100 | 12 | 100 |  |  |  |  | 
17 | COc1ccc(-c2cn3c(c2C(C)=O)NC(C(N)=O)(C(N)=O)c2ccc([N+](=O)[O-])cc2-3)cc1 [Compound B4] | 100 | 20 | 88 | 0 | 86 | 0 | 100 |  |  |  |  | 
18 | C=CC1(CC#N)Nc2c([S+]([O-])C(F)(F)F)c(C#N)nn2-c2c(Cl)cc(C(F)(F)F)cc21 (centres unmarked) [Compound C20] | 100 | 28 | 99 | 10 | 100 | 8 | 100 |  |  |  |  | 
19 | N#Cc1cn2c(c1C#N)NC(C#N)(C#N)c1ccc(Br)cc1-2 [Compound B9] | 100 | 38 | 100 | 5 | 100 | 0 | 100 |  |  |  |  | 
20 | C=CC1Nc2c(-c3cc(C)oc3C)c(C#N)nn2-c2c(Cl)cc(C(F)(F)F)cc21 (centres unmarked) [Compound C50] | 86 | 26 | 86 | 2 | 81 | 5 | 90 |  |  |  |  | 
